What follows are compounds tested against H1047R PIK3CA enzyme (Homo sapiens, UniProt P42336, H1047R) (assay: ADP-Glo Biochemical PIK3CA Kinase Assay).
Method: Compounds to be assayed were plated in 16 doses of 1:2 serial dilutions (20 nL volume each well) on a 1536-well plate, and the plate warmed to room temperature. […] To the well was added 1 μL of 200 μM ATP and 20 μM of diC8-PIP2 in Substrate Assay Buffer (50 mM HEPES pH7.4, 50 mM NaCl, 5 mM DTT and 0.03% CHAPS) to start the reaction, and the plate was shaken for 10 seconds, then spun briefly at 1500 rpm, and then incubated for 60 minutes at room temperature. The reaction was stopped by adding 2 μL of ADP-Glo reagent (Promega), and spinning briefly at 1500 rpm, and then incubating for 40 minutes. ADP-Glo Detection reagent (Promega) was added and the plate spun briefly at 1500 rpm, then incubated for 30 minutes.

H1047R PIK3CA enzyme, sequence (P42336 whole entry H1047R): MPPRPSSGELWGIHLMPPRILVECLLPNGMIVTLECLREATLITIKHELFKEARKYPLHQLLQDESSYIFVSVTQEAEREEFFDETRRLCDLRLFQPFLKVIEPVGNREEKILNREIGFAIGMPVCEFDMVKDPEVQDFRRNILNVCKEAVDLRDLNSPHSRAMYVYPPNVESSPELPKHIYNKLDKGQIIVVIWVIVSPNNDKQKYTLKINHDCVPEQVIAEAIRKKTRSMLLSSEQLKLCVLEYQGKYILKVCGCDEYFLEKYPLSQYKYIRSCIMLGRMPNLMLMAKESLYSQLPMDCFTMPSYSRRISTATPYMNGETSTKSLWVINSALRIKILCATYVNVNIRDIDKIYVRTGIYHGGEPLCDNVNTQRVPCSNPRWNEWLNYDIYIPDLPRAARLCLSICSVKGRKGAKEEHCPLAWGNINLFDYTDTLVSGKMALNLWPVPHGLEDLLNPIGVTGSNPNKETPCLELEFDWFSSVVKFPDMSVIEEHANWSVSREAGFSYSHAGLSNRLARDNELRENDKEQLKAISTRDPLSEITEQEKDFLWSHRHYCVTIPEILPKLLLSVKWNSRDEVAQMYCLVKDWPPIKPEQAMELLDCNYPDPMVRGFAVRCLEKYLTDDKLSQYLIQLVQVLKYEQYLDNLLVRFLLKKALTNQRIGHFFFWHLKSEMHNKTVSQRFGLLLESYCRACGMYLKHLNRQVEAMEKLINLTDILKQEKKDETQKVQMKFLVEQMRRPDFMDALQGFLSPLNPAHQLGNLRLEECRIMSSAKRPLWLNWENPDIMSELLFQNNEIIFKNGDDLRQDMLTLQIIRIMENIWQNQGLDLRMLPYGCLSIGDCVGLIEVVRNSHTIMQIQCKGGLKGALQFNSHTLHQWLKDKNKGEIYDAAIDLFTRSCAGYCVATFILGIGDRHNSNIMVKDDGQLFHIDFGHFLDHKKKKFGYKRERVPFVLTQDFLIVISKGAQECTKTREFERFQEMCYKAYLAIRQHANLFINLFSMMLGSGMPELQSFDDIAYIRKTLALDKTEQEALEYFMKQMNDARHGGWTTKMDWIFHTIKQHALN
H1047R PIK3CA enzyme, sequence (P27986 whole entry partner): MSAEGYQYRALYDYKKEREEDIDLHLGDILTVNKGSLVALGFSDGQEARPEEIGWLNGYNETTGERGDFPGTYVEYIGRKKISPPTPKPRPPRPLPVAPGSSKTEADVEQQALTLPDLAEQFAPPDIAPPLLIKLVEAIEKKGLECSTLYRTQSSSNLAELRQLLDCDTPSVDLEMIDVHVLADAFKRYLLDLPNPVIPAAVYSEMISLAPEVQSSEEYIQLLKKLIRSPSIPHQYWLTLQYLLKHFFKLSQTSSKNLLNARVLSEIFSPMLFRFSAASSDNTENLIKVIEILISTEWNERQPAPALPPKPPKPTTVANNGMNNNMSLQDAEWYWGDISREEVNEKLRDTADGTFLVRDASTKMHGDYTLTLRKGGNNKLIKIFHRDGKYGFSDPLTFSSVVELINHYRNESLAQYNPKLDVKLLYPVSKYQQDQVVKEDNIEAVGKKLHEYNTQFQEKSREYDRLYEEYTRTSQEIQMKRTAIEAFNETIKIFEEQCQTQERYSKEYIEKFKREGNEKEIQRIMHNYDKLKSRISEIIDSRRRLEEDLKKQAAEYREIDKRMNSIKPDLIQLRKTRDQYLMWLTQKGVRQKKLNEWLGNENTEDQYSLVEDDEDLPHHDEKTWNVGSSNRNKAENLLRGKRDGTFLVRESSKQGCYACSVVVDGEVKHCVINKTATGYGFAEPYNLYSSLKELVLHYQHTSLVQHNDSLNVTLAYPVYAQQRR

First: CC(C)(C)N[C@H]1NC(=O)c2cccc(NC(=O)c3cc(F)cc(C(F)(F)F)c3)c21 (single isomer, unassigned) [Compound I-2248]
Second: O=C(Nc1cccc2c1C(c1ccccc1Br)NC2=O)c1cc(F)cc(C(F)(F)F)c1 (centres unmarked) [Compound I-325]
The IC50 of the first is higher: 10000 to 100000 nM for the first, 100 to 500 nM for the second.

Compared with `O=C(Nc1cc(Br)cc2c1[C@@H](c1cccc(F)c1F)NC2=O)c1cc(F)cc(C(F)(F)F)c1` [Compound I-683], `O=C(Nc1cc(Br)cc2c1C(c1cc(F)cc(F)c1Cl)NC2=O)c1cc(F)cc(C(F)(F)F)c1` (centres unmarked) [Compound I-807] is lower in IC50: 1000 to 10000 nM for the first, at most 100 nM for the second. The second is the more potent here.

`CC(=O)Nc1cc(NC(=O)N2C[C@@](O)(C(F)(F)F)c3cc(F)ccc32)c2c(c1)C(=O)N[C@@H]2c1cc(F)ccc1Cl` (single isomer, unassigned) [Compound I-2575] and `O=C1N[C@@H](c2cc(F)ccc2Cl)c2c(NC(=O)N3C[C@@](O)(C(F)(F)F)c4cc(F)ccc43)cc(N3CCCC3=O)cc21` (single isomer, unassigned) [Compound I-2667] fall in the same range of IC50: 1000 to 10000 nM for the first, 1000 to 10000 nM for the second.

`N#Cc1nc2cc(-c3cc(NC(=O)c4cc(F)cc(C(F)(F)F)c4)c4c(c3)C(=O)NC4c3cc(F)ccc3Cl)ccn2n1` (centres unmarked) [Compound I-1741] and `O=C(Nc1cc(-c2ccc3nc(Cl)nn3c2)cc2c1[C@H](c1cc(F)ccc1Cl)NC2=O)c1cc(F)cc(C(F)(F)F)c1` [Compound I-1693] cannot be ordered by IC50: at most 100 nM for the first, at most 100 nM for the second.

`N#Cc1cc(Oc2cc(NC(=O)c3cc(F)cc(C(F)(F)F)c3)c3c(c2)C(=O)NC3c2cc(F)ccc2Cl)ccn1` (centres unmarked) [Compound I-1130] and `N#Cc1cnn(-c2cc(NC(=O)c3cc(F)cc(C(F)(F)F)c3)c3c(c2)C(=O)NC3c2cc(F)ccc2Cl)c1` (centres unmarked) [Compound I-1140] cannot be ordered by IC50: at most 100 nM for the first, at most 100 nM for the second.

First: O=C(Nc1cc(Br)cc2c1C(c1cc(F)ccc1Cl)NC2=O)c1ccccc1 (centres unmarked) [Compound I-470]
Second: O=C(Nc1cc(Br)cc2c1C(c1cc(F)ccc1Cl)NC2=O)c1ccc(Cl)c(C(F)(F)F)c1 (centres unmarked) [Compound I-952]
The IC50 of the first is higher: 10000 to 100000 nM for the first, 100 to 500 nM for the second. The second is the more potent here.

`O=C1NC(c2cc(F)c(F)cc2Cl)c2c(NC(=O)c3nsc4ccccc34)cccc21` (centres unmarked) [Compound I-159] and `CC(C)(O)c1cc(NC(=O)c2nsc3ccccc23)c2c(c1)C(=O)NC2c1cc(F)ccc1Cl` (centres unmarked) [Compound I-136] cannot be ordered by IC50: at most 100 nM for the first, at most 100 nM for the second.

`O=C1N[C@H](c2cc(F)ccc2Cl)c2c(NC(=O)[C@@H]3CC[C@H](O)C3)cc(Br)cc21` (single isomer, unassigned) [Compound I-2105] and `O=C1NC(c2cc(F)ccc2Cl)c2c(NC(=O)C3CC4(C3)CC4(F)F)cc(Br)cc21` (centres unmarked) [Compound I-1634] fall in the same range of IC50: 10000 to 100000 nM for the first, 10000 to 100000 nM for the second.

`O=C(Nc1cc(OC[C@@H]2CCO2)cc2c1[C@H](c1cc(F)ccc1Cl)NC2=O)c1cc(F)cc(C(F)(F)F)c1` (single isomer, unassigned) [Compound I-1517] and `CC(=O)NCCOc1cc(NC(=O)c2cc(F)cc(C(F)(F)F)c2)c2c(c1)C(=O)NC2c1cc(F)ccc1Cl` (racemic) [Compound I-1322] cannot be ordered by IC50: at most 100 nM for the first, 100 to 500 nM for the second.

`O=C(Nc1cc(N2CCC(F)(F)CC2)nc2c1C(c1cc(F)ccc1Cl)NC2=O)c1cc(F)cc(C(F)(F)F)c1` (centres unmarked) [Compound I-539] and `O=C(Nc1cc(CCC(F)(F)F)nc2c1C(c1cc(F)ccc1Cl)NC2=O)c1cc(F)cc(C(F)(F)F)c1` (centres unmarked) [Compound I-529] cannot be ordered by IC50: at most 100 nM for the first, at most 100 nM for the second.

First: O=C(Nc1cc(-c2cn[nH]c2)nc2c1[C@@H](c1cc(F)ccc1Cl)NC2=O)c1cc(F)cc(Cl)c1 [Compound I-195]
Second: O=C(Nc1cc(-c2cn[nH]c2)nc2c1[C@H](c1cc(F)ccc1Cl)NC2=O)c1cc(F)cc(Cl)c1 [Compound I-196]
The IC50 of the first is higher: 1000 to 10000 nM for the first, at most 100 nM for the second.

`O=C(Nc1cc(-c2cc(F)c3ncnn3c2)cc2c1C(c1cc(F)ccc1Cl)NC2=O)c1cc(F)cc(C(F)(F)F)c1` (centres unmarked) [Compound I-1653] and `O=C(Nc1cc(-c2cnn3ncnc3c2)cc2c1[C@H](c1cc(F)ccc1Cl)NC2=O)c1cc(F)cc(C(F)(F)F)c1` [Compound I-1872] cannot be ordered by IC50: at most 100 nM for the first, at most 100 nM for the second.

Compared with `CCc1cc(F)cc(C(=O)Nc2cc(Br)cc3c2C(c2ccccc2C)NC3=O)c1` (centres unmarked) [Compound I-608], `CN(Cc1cccc(O)c1)C(=O)Nc1cc(Br)cc2c1C(c1cc(F)ccc1Cl)NC2=O` (centres unmarked) [Compound I-1382] is higher in IC50: 500 to 1000 nM for the first, 10000 to 100000 nM for the second. The first is the more potent here.

`O=C1N[C@H](c2cc(F)ccc2Cl)c2c(NC(=O)N3C[C@@H](O)c4c3ccc(F)c4F)cccc21` (single isomer, unassigned) [Compound I-2311] and `O=C1N[C@H](c2cc(F)ccc2Cl)c2c(NC(=O)N3C[C@@H](C(F)F)c4ccccc43)cccc21` (single isomer, unassigned) [Compound I-2331] fall in the same range of IC50: 1000 to 10000 nM for the first, 1000 to 10000 nM for the second.

First: CNc1cc(NC(=O)N2C[C@@](O)(C(F)F)c3cc(F)ccc32)c2c(c1)C(=O)N[C@@H]2c1cc(F)ccc1Cl (single isomer, unassigned) [Compound I-2679]
Second: Nc1cc(NC(=O)N2C[C@@H](O)c3ccccc32)c2c(c1)C(=O)N[C@@H]2c1cc(F)ccc1Cl (single isomer, unassigned) [Compound I-2131]
The IC50 of the first is higher: 10000 to 100000 nM for the first, 1000 to 10000 nM for the second.

`CS(=O)(=O)Cc1cc(NC(=O)c2cc(F)cc(C(F)(F)F)c2)c2c(n1)C(=O)NC2c1cc(F)ccc1Cl` (centres unmarked) [Compound I-1644] and `O=C(Nc1cc(CO)cc2c1C(c1cc(F)ccc1Cl)NC2=O)c1cc(F)cc(C(F)(F)F)c1` (centres unmarked) [Compound I-185] cannot be ordered by IC50: at most 100 nM for the first, at most 100 nM for the second.

First: O=C1N[C@@H](c2cc(F)ccc2Cl)c2c(NC(=O)N3C[C@@H](O)c4ccccc43)cc(-c3ccc4ncnn4c3)cc21 (single isomer, unassigned) [Compound I-1577]
Second: CC(C)(O)c1cc(NC(=O)N2C[C@@H](O)c3ccccc32)c2c(c1)C(=O)N[C@@H]2c1cc(F)ccc1Cl (single isomer, unassigned) [Compound I-2122]
The IC50 of the first is lower: at most 100 nM for the first, 10000 to 100000 nM for the second. The first is the more potent here.

First: O=C1NC(c2cc(F)ccc2Cl)c2ccc(-c3ccc4ncnn4c3)cc21 (centres unmarked) [Compound I-1775]
Second: N#Cc1cc(-c2ccc3ncnn3c2)cc2c1C(c1cc(F)ccc1Cl)NC2=O (centres unmarked) [Compound I-1801]
The IC50 of the first is higher: 10000 to 100000 nM for the first, 1000 to 10000 nM for the second. The second is the more potent here.

`O=C1NC(c2cc(F)ccc2Cl)c2c(Nc3ccncc3)cc(Br)cc21` (centres unmarked) [Compound I-2025] and `O=C1N[C@@H](c2cc(F)ccc2Cl)c2c(N[C@@H]3CCOc4ccccc43)cc(Br)cc21` (racemic) [Compound I-2014] fall in the same range of IC50: 10000 to 100000 nM for the first, 10000 to 100000 nM for the second.

Compared with `Cn1c(Nc2cccc3c2C(c2cc(F)ccc2Cl)NC3=O)nnc1C1CC1` (centres unmarked) [Compound I-880], `O=C1NC(c2cc(F)ccc2Cl)c2c(NC(=O)c3ncsc3Br)cccc21` (centres unmarked) [Compound I-2397] is lower in IC50: 10000 to 100000 nM for the first, 1000 to 10000 nM for the second.

Compared with `C[C@H](C#N)Cn1cc(-c2cc(NC(=O)N3C[C@@H](O)c4cc(F)ccc43)c3c(c2)C(=O)N[C@H]3c2cc(F)ccc2Cl)cn1` (single isomer, unassigned) [Compound I-2502], `Cc1ncc(-c2cc(NC(=O)c3cc(F)cc(Cl)c3)c3c(c2)C(=O)N[C@@H]3c2cc(F)ccc2Cl)cn1` [Compound I-895] is higher in IC50: 1000 to 10000 nM for the first, 10000 to 100000 nM for the second.

First: O=C1CCC[C@@H]([C@H]2NC(=O)c3cccc(NC(=O)c4cc(F)cc(C(F)(F)F)c4)c32)C1 (single isomer, unassigned) [Compound I-2253]
Second: CC(=O)Nc1cc(NC(=O)c2cc(F)cc(C(F)(F)F)c2)c2c(c1)C(=O)N[C@@H]2c1cc(F)ccc1Cl [Compound I-462]
The IC50 of the first is higher: 10000 to 100000 nM for the first, 1000 to 10000 nM for the second. The second is the more potent here.

`O=C1N[C@H](c2cc(F)ccc2Cl)c2c(NC(=O)[C@@H]3CCC[C@H](C(F)(F)F)C3)cc(-c3ccc4ncnn4c3)cc21` [Compound I-2031] and `O=C(CC1(C(F)(F)F)CC1)Nc1cc(-c2ccc3ncnn3c2)cc2c1C(c1cc(F)ccc1Cl)NC2=O` (centres unmarked) [Compound I-2044] fall in the same range of IC50: 1000 to 10000 nM for the first, 1000 to 10000 nM for the second.

`O=C(Nc1cc(NC(=O)c2cc(F)cc(C(F)(F)F)c2)c2c(c1)C(=O)N[C@H]2c1cc(F)ccc1Cl)c1cccnc1` [Compound I-1477] and `CC(O)(c1cc(NC(=O)c2cc(F)cc(C(F)(F)F)c2)c2c(c1)C(=O)NC2c1cc(F)ccc1Cl)c1ccccn1` (centres unmarked) [Compound I-1188] cannot be ordered by IC50: at most 100 nM for the first, at most 100 nM for the second.

`Cn1nccc1Cc1cc(NC(=O)c2cc(F)cc(C(F)(F)F)c2)c2c(c1)C(=O)NC2c1cc(F)ccc1Cl` (centres unmarked) [Compound I-1293] and `O=C(Nc1cc(-c2ccnn2C2COC2)cc2c1C(c1cc(F)ccc1Cl)NC2=O)c1cc(F)cc(C(F)(F)F)c1` (centres unmarked) [Compound I-1037] cannot be ordered by IC50: at most 100 nM for the first, at most 100 nM for the second.

`CC(C)n1cc(-c2cc(NC(=O)c3cc(F)cc(C(F)(F)F)c3)c3c(n2)C(=O)NC3c2cc(F)ccc2Cl)ccc1=O` (centres unmarked) [Compound I-593] and `CCn1cc(-c2cc(NC(=O)c3cc(F)cc(C(F)(F)F)c3)c3c(n2)C(=O)N[C@H]3c2cc(F)ccc2Cl)ccc1=O` [Compound I-615] cannot be ordered by IC50: at most 100 nM for the first, at most 100 nM for the second.

First: N#Cc1c(-c2cc(NC(=O)c3cc(F)cc(C(F)(F)F)c3)c3c(c2)C(=O)N[C@@H]3c2cc(F)ccc2Cl)cnn1C(F)F [Compound I-1920]
Second: O=C(Nc1cc(-c2ccc3ncc(F)n3c2)cc2c1[C@@H](c1cc(F)ccc1Cl)NC2=O)c1cc(F)cc(C(F)(F)F)c1 [Compound I-1869]
The IC50 of the first is higher: 1000 to 10000 nM for the first, 500 to 1000 nM for the second. The second is the more potent here.

First: CN(C)S(=O)(=O)c1cc(-c2ccc3ncnn3c2)cc2c1[C@H](c1cc(F)ccc1Cl)NC2=O [Compound I-2099]
Second: O=C(Nc1cc(-c2cn3ccnc3cn2)cc2c1[C@@H](c1cc(F)ccc1Cl)NC2=O)c1cc(F)cc(C(F)(F)F)c1 [Compound I-1329]
The IC50 of the first is higher: 10000 to 100000 nM for the first, 1000 to 10000 nM for the second.

`Cc1ccccc1C1NC(=O)c2cc([C@@H](C)N)cc(NC(=O)c3csc4ccccc34)c21` (mixture of isomers) [Compound I-90] and `O=C(Nc1cc(-c2ccc3c(c2)OC(F)(F)O3)cc2c1C(c1cc(F)ccc1Cl)NC2=O)c1cc(F)cc(C(F)(F)F)c1` (centres unmarked) [Compound I-738] cannot be ordered by IC50: at most 100 nM for the first, 100 to 500 nM for the second.

Compound `O=C1NC(c2cc(F)ccc2Cl)c2c(NC(=O)C3CC4(C3)CC(F)(F)C4)cc(Br)cc21` (centres unmarked) [Compound I-1622] has an IC50 of 1000 to 10000 nM.

— patent US12581252B2, “Substituted pyrrolo[3,4-b]pyridines as PI3K-α inhibitors” (Relay Therapeutics, Inc., priority 2020, dated 2026)
